Patent US7541368B2, “Pyrazoles as inhibitors of tumor necrosis factor” (Aventis Pharmaceuticals Inc., priority 2003, dated 2009)

Test system: TNF-alpha release in THP-1 cells
Test: LPS-induced TNF-alpha release in THP-1 cells
Type: cell-based
Conditions: Homo sapiens, THP-1, LPS-stimulated THP-1 cells; read-out: 50% inhibition in the LPS-induced TNF-alpha release in THP-1 cells assay at concentrations within the range
In short: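 TNF-alpha in supernatants was quantified by sandwich ELISA against a log/log recombinant standard curve (0.125-16 ng/ml). Before this, THP-1 cells (1×10^6 cells/ml, serum-reduced) received compound at 1×10^−9 to 1×10^−6 M in 0.3% DMSO for 1 h, then LPS 20 μg/ml for 18 h.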

IC50 [µM] | Compound
0.01 to 0.5 | Cc1ccc(-n2nc(C(C)(C)C)cc2NC(=O)Nc2ccc(CC3CCN(C(=O)c4cc5ccccc5o4)CC3)cc2)cc1 [Compound A232, 1-{4-[1-(Benzofuran-2-carbonyl)-piperidin-4-ylmethyl]-phenyl}-3-(5-tert-butyl-2-p-tolyl-2H-pyrazol-3-yl)-urea]
0.01 to 0.5 | Cc1ccc(-n2nc(C(C)(C)C)cc2NC(=O)Nc2ccc(CC3CCN(C(=O)c4ccccn4)CC3)cc2)cc1 [Compound A380, 1-(5-tert-Butyl-2-p-tolyl-2H-pyrazol-3-yl)-3-{4-[1-(pyridine-2-carbonyl)-piperidin-4-ylmethyl]-phenyl}-urea]
0.01 to 0.5 | Cc1ccc(-n2nc(C(C)(C)C)cc2NC(=O)Nc2cccc(CC3CCN(C(=O)c4coc5c4C(=O)CCC5)CC3)c2)cc1 [Compound A154, 1-(5-tert-Butyl-2-p-tolyl-2H-pyrazol-3-yl)-3-{3-[1-(4-oxo-4,5,6,7-tetrahydro-benzofuran-3-carbonyl)-piperidin-4-ylmethyl]-phenyl}-urea]
0.01 to 0.5 | Cc1ccc(-n2nc(C(C)(C)C)cc2NC(=O)Nc2ccc(CC3CCN(C(=O)c4ccco4)CC3)cc2)cc1 [Compound A237, 1-(5-tert-Butyl-2-p-tolyl-2H-pyrazol-3-yl)-3-{4-[1-(furan-2-carbonyl)-piperidin-4-ylmethyl]-phenyl}-urea]
0.01 to 0.5 | Cc1ccc(-n2nc(C(C)(C)C)cc2NC(=O)Nc2ccc(CC3CCN(C(=O)c4ccc5ccccc5n4)CC3)cc2)cc1 [Compound A383, 1-(5-tert-Butyl-2-p-tolyl-2H-pyrazol-3-yl)-3-{4-[1-(quinoline-2-carbonyl)-piperidin-4-ylmethyl]-phenyl}-urea]
0.01 to 0.5 | Cc1ccc(-n2nc(C(C)(C)C)cc2NC(=O)Nc2ccc(CC3CCN(C(=O)c4csc(-c5ccncc5)n4)CC3)cc2)cc1 [Compound A227, 1-(5-tert-Butyl-2-p-tolyl-2H-pyrazol-3-yl)-3-{4-[1-(2-pyridin-4-yl-thiazole-4-carbonyl)-piperidin-4-ylmethyl]-phenyl}-urea]
0.01 to 0.5 | Cc1ccc(-n2nc(C(C)(C)C)cc2NC(=O)Nc2ccc(CC3CCN(C(=O)c4csnn4)CC3)cc2)cc1 [Compound A196, 1-(5-tert-Butyl-2-p-tolyl-2H-pyrazol-3-yl)-3-{4-[1-([1,2,3]thiadiazole-4-carbonyl)-piperidin-4-ylmethyl]-phenyl}-urea]
0.01 to 0.5 | COc1cccc(C(=O)N2CCC(Cc3cccc(NC(=O)Nc4cc(C(C)(C)C)nn4-c4ccc(C)cc4)c3)CC2)c1OC [Compound A21, 1-(5-tert-Butyl-2-p-tolyl-2H-pyrazol-3-yl)-3-{3-[1-(2,3-dimethoxy-benzoyl)-piperidin-4-ylmethyl]-phenyl}-urea]
0.01 to 0.5 | COc1ccccc1CCC(=O)N1CCC(Cc2cccc(NC(=O)Nc3cc(C(C)(C)C)nn3-c3ccc(C)cc3)c2)CC1 [Compound A82, 1-(5-tert-Butyl-2-p-tolyl-2H-pyrazol-3-yl)-3-(3-{1-[3-(2-methoxy-phenyl)-propionyl]-piperidin-4-ylmethyl}-phenyl)-urea]

The next lines start with the compound.

Compound | IC50 [µM]
COc1ccc(OC)c(C(=O)N2C3CCC2CC(Cc2ccc(NC(=O)Nc4cc(C(C)(C)C)nn4-c4ccc(C)cc4)cc2)C3)c1 (stereo not drawn) [Compound A1647, 1-(5-tert-Butyl-2-p-tolyl-2H-pyrazol-3-yl)-3-{4-[8-(2,5-dimethoxy-benzoyl)-8-aza-bicyclo[3.2.1]oct-3-ylmethyl]-phenyl}-urea] | 0.01 to 0.5
COc1ccc(CC(=O)N2CCC(Cc3cccc(NC(=O)Nc4cc(C(C)(C)C)nn4-c4ccc(C)cc4)c3)CC2)cc1 [Compound A122, 1-(5-tert-Butyl-2-p-tolyl-2H-pyrazol-3-yl)-3-(3-{1-[2-(4-methoxy-phenyl)-acetyl]-piperidin-4-ylmethyl}-phenyl)-urea] | 0.01 to 0.5
COc1cccc(C(=O)N2CCC(Cc3ccc(NC(=O)Nc4cc(C(C)(C)C)nn4-c4ccc(C)cc4)cc3)CC2)c1OC [Compound A212, 1-(5-tert-Butyl-2-p-tolyl-2H-pyrazol-3-yl)-3-{4-[1-(2,3-dimethoxy-benzoyl)-piperidin-4-ylmethyl]-phenyl}-urea] | 0.01 to 0.5
Cc1ccc(-n2nc(C(C)(C)C)cc2NC(=O)Nc2cccc(CC3CCN(C(=O)c4n[nH]c5ccccc45)CC3)c2)cc1 [Compound A167, 1-(5-tert-Butyl-2-p-tolyl-2H-pyrazol-3-yl)-3-{3-[1-(1H-indazole-3-carbonyl)-piperidin-4-ylmethyl]-phenyl}-urea] | 0.01 to 0.5
Cc1ccc(-n2nc(C(C)(C)C)cc2NC(=O)Nc2cccc(CC3CCN(C(=O)Cc4ccc5c(c4)OCO5)CC3)c2)cc1 [Compound A70, 1-{3-[1-(2-Benzo[1,3]dioxol-5-yl-acetyl)-piperidin-4-ylmethyl]-phenyl}-3-(5-tert-butyl-2-p-tolyl-2H-pyrazol-3-yl)-urea] | 0.01 to 0.5
Cc1ccc(-n2nc(C(C)(C)C)cc2NC(=O)Nc2ccc(CC3CCN(C(=O)c4cccc(Nc5nc(C)cc(C)n5)c4)CC3)cc2)cc1 [Compound A371, 1-(5-tert-Butyl-2-p-tolyl-2H-pyrazol-3-yl)-3-(4-{1-[3-(4,6-dimethyl-pyrimidin-2-ylamino)-benzoyl]-piperidin-4-ylmethyl}-phenyl)-urea] | 0.01 to 0.5
COc1ccccc1CC(=O)N1C2CCC1CC(Cc1ccc(NC(=O)Nc3cc(C(C)(C)C)nn3-c3ccc(C)cc3)cc1)C2 (stereo not drawn) [Compound A1404, 1-(5-tert-Butyl-2-p-tolyl-2H-pyrazol-3-yl)-3-(4-{8-[2-(2-methoxy-phenyl)-acetyl]-8-aza-bicyclo[3.2.1]oct-3-ylmethyl}-phenyl)-urea] | 0.01 to 0.5
CC(=O)c1ccc(NC(=O)N2CCC(Cc3cccc(NC(=O)Nc4cc(C(C)(C)C)nn4-c4ccc(C)cc4)c3)CC2)cc1 [Compound A403, 4-{3-[3-(5-tert-Butyl-2-p-tolyl-2H-pyrazol-3-yl)-ureido]-benzyl}-piperidine-1-carboxylic acid (4-acetyl-phenyl)-amide] | 0.01 to 0.5
COc1cc(N)c(Cl)cc1C(=O)N1C2CCC1CC(Cc1ccc(NC(=O)Nc3cc(C(C)(C)C)nn3-c3ccc(C)cc3)cc1)C2 (stereo not drawn) [Compound A1441, 1-{4-[8-(4-Amino-5-chloro-2-methoxy-benzoyl)-8-aza-bicyclo[3.2.1]oct-3-ylmethyl]-phenyl}-3-(5-tert-butyl-2-p-tolyl-2H-pyrazol-3-yl)-urea] | 0.01 to 0.5
Cc1ccc(-n2nc(C(C)(C)C)cc2NC(=O)Nc2cccc(CC3CC4CCC(C3)N4C(=O)Cc3ccccc3F)c2)cc1 (stereo not drawn) [Compound A761, 1-(5-tert-Butyl-2-p-tolyl-2H-pyrazol-3-yl)-3-(3-{8-[2-(2-fluoro-phenyl)-acetyl]-8-aza-bicyclo[3.2.1]oct-3-ylmethyl}-phenyl)-urea] | 0.01 to 0.5
Cc1ccc(-n2nc(C(C)(C)C)cc2NC(=O)Nc2ccc(CC3CCN(C(=O)Cc4ccc(F)cc4)CC3)cc2)cc1 [Compound A314, 1-(5-tert-Butyl-2-p-tolyl-2H-pyrazol-3-yl)-3-(4-{1-[2-(4-fluoro-phenyl)-acetyl]-piperidin-4-ylmethyl}-phenyl)-urea] | 0.01 to 0.5
Cc1ccc(-n2nc(C(C)(C)C)cc2NC(=O)Nc2ccc(CC3CCN(C(=O)c4cc5cnccc5nc4C)CC3)cc2)cc1 [Compound A243, 1-(5-tert-Butyl-2-p-tolyl-2H-pyrazol-3-yl)-3-{4-[1-(2-methyl-[1,6]naphthyridine-3-carbonyl)-piperidin-4-ylmethyl]-phenyl}-urea] | 0.01 to 0.5
